This note sets out measurements from US20240254115A1 (ACONDICIONAMIENTO TARRASENSE, priority 2021, published 2024).

In general, Ki refers to the dissociation constant of the complex between target and ligand, obtained from inhibition or displacement.

The target of experiment [1] is T1, human σ1 receptor (Homo sapiens, UniProt Q99720).
T1 construct: expressed in transfected cells; host or cells: HEK-293
Description: Human σ1 receptor radioligand assay. The following applies: transfected HEK-293 membranes, 5 nM [3H](+)-pentazocine, 37° C. 120 minutes; + may also stand for 1-50% inhibition at 1 or 10 μM; read-out: Binding σ-1 Ki. In outline: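 Membranes (7 μg) were incubated with 5 nM [3H](+)-pentazocine in 50 mM Tris-HCl pH 8 for 120 min at 37° C. Non-specific binding was defined with 10 μM haloperidol. Values are % inhibition at 1 or 10 μM or Ki from five concentrations, read by filtration and scintillation counting.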

Experiment [2] has as its target T2, human σ2/TMEM97 receptor (Homo sapiens, UniProt Q5BJF2).
T2 construct: expressed in transfected cells; host or cells: HEK-293
Description: Binding assay to human σ2/TMEM97 receptor. Conditions: transfected HEK-293 membranes, 10 nM [3H]-DTG, 25° C. 120 minutes; + may also stand for 1-50% inhibition at 1 or 10 μM; read-out: Binding σ-2 Ki. In outline: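 Membranes from transfected HEK-293 cells (15 µg) were incubated with 10 nM [3H]-DTG in 50 mM Tris-HCl pH 8.0 for 120 min at 25 °C, with 10 µM haloperidol defining non-specific binding. Filtration and scintillation counting followed. Compounds tested as % inhibition at 1 or 10 µM, or at five concentrations for Ki.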

The structures appear in SMILES notation. Some results are limits rather than exact numbers.

T2 sequence (Q5BJF2 whole entry): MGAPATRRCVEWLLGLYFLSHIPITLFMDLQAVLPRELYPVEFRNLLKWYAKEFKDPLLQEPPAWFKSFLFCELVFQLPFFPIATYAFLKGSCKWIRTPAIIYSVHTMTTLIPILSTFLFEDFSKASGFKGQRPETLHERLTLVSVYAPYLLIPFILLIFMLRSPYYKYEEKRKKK
T1 sequence (Q99720 whole entry): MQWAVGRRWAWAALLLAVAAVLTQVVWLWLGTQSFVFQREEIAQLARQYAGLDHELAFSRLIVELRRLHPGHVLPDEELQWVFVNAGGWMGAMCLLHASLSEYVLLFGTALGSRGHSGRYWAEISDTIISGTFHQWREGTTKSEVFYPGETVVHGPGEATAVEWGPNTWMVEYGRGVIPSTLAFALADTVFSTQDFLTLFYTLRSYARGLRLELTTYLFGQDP

For the compound `O=S(=O)(c1ccc(N2CCOCC2)nc1)N1CCC[C@@H](CNCc2ccc(O)nc2)C1` [Example 65, (S)-5-((((1-((6-Morpholinopyridin-3-yl)sulfonyl)piperidin-3-yl)methyl)amino)methyl)pyridin-2-ol], the figures for the Ki in experiment [1] and in experiment [2] were greater than 1000 nM and 100 to 500 nM, respectively.
Turning to `O=C1OCCN1c1ccc(S(=O)(=O)N2CCC3(CCN(CC4CCOCC4)CC3)C2)cn1` [Example 153, 3-(5-((8-((Tetrahydro-2H-pyran-4-yl)methyl)-2,8-diazaspiro[4.5]decan-2-yl)sulfonyl)pyridin-2-yl)oxazolidin-2-one], the inhibitory constant (Ki) in experiment [1] and in experiment [2] was less than 100 nM each time.
With `CN(CC1CCOCC1)C1CCN(S(=O)(=O)c2ccc(N3CCOC3=O)nc2)CC1` [Example 129, 3-(5-((4-(Methyl((tetrahydro-2H-pyran-4-yl)methyl)amino)piperidin-1-yl)sulfonyl)pyridin-2-yl)oxazolidin-2-one], the inhibition constant (Ki) in experiment [1] and in experiment [2] was 100 to 500 nM throughout.
On to `O=S(=O)(NC1CN(Cc2ccccc2)C1)c1ccc(N2CCOCC2)nc1` [Example 43, N-(1-Benzylazetidin-3-yl)-6-morpholinopyridine-3-sulfonamide], for which the Ki in experiment [1] is less than 100 nM; in experiment [2], greater than 1000 nM.
As for `O=S(=O)(NC1CCN(Cc2cccc(F)c2)CC1)c1ccc(N2CCOCC2)nc1` [Example 8, N-(1-(3-Fluorobenzyl)piperidin-4-yl)-6-morpholinopyridine-3-sulfonamide], the Ki in experiment [1] was less than 100 nM; in experiment [2], greater than 1000 nM.
`C[C@@H]1CN(c2ccc(S(=O)(=O)N[C@H]3CCN(Cc4ccccc4)C3)cn2)C[C@H](C)O1` [Example 20, N—((S)-1-Benzylpyrrolidin-3-yl)-6-((2R,6S)-2,6-dimethylmorpholino)pyridine-3-sulfonamide]: the values for the Ki in experiment [1] and in experiment [2] were less than 100 nM and greater than 1000 nM, respectively.
As to `O=S(=O)(c1ccc(N2CCC(F)(F)CC2)nc1)N1CCC2(CCN(Cc3ccccc3)CC2)CC1` [Example 74, 3-Denzyl-9-((6-(4,4-difluoropiperidin-1-yl)pyridin-3-yl)sulfonyl)-3,9-diazaspiro[5.5]undecane], the Ki in experiment [1] is 100 to 500 nM; in experiment [2], less than 100 nM.
Consider `CC(C)OCCN1CCC2(CC1)CCN(S(=O)(=O)c1ccc(C(F)(F)F)nc1)CC2` [Example 90, 3-(2-Isopropoxyethyl)-9-((6-(trifluoromethyl)pyridin-3-yl)sulfonyl)-3,9-diazaspiro[5.5]undecane], for which the Ki in experiment [1] is 100 to 500 nM; in experiment [2] it was less than 100 nM.
`O=S(=O)(NC1CCN(Cc2ccccc2)CC1)c1ccc(N2CCOCC2)nc1` [Example 2, N-(1-Benzylpiperidin-4-yl)-6-morpholinopyridine-3-sulfonamide]: the Ki in experiment [1] is less than 100 nM; in experiment [2], greater than 1000 nM.
With `CN(Cc1ccccc1F)[C@H]1CC[C@H](NS(=O)(=O)c2ccc(N3CCOCC3)nc2)CC1` [Example 56, N-((1r,4r)-4-((2-Fluorobenzyl)(methyl)amino)cyclohexyl)-6-morpholinopyridine-3-sulfonamide], the Ki in experiment [1] was greater than 1000 nM; in experiment [2], less than 100 nM.
As for `CN(Cc1ccccc1)[C@H]1CC[C@H](NS(=O)(=O)c2ccc(N3CCC(F)(F)CC3)nc2)CC1` [Example 175, N-((1r,4r)-4-(Benzyl(methyl)amino)cyclohexyl)-6-(4,4-difluoropiperidin-1-yl)pyridine-3-sulfonamide], the Ki in experiment [1] was 100 to 500 nM; in experiment [2] it was less than 100 nM.
Regarding `CN(Cc1ccc(F)cc1)[C@H]1CC[C@H](NS(=O)(=O)c2ccc(N3CCOCC3)cn2)CC1` [Example 119, N-((1r,4r)-4-((4-Fluoro-benzyl)(methyl)amino)cyclo-hexyl)-5-morpholinopyridine-2-sulfonamide], the figures for the Ki in experiment [1] and in experiment [2] were greater than 1000 nM and less than 100 nM, respectively.
Take `CC(C)(C)CCN1CCC2(CCCN(S(=O)(=O)c3ccc(N4CCC5(CCCO5)CC4)nc3)C2)CC1` [Example 98, 8-(5-((9-(3,3-Dimethylbutyl)-2,9-diazaspiro[5.5]undecan-2-yl)sulfonyl)pyridin-2-yl)-1-oxa-8-azaspiro[4.5]decane]: the inhibition constant (Ki) in experiment [1] and in experiment [2] was less than 100 nM throughout.
For `CC(C)(C)CN1CCC2(CC1)CCN(S(=O)(=O)c1ccc(N3CCC(F)(F)CC3)nc1)CC2` [Example 99, 3-((6-(4,4-Difluoropiperidin-1-yl)pyridin-3-yl)sulfonyl)-9-neopentyl-3,9-diazaspiro[5.5]undecane], the Ki in experiment [1] was 100 to 500 nM; in experiment [2], less than 100 nM.
The matching figures for `O=S(=O)(N[C@@H]1CCN(Cc2cccc(F)c2)C1)c1ccc(N2CCOCC2)nc1` [Example 38, (R)-N-(1-(3-Fluorobenzyl)pyrrolidin-3-yl)-6-morpholinopyridine-3-sulfonamide]: less than 100 nM and greater than 1000 nM.
In the same order, the values of `CN(Cc1ccccc1)C1CCN(S(=O)(=O)c2ccc(N3CCC4(CCCO4)CC3)nc2)CC1` [Example 87, 1-((6-(1-Oxa-8-azaspiro[4.5]decan-8-yl)pyridin-3-yl)sulfonyl)-N-benzyl-N-methylpiperidin-4-amine] are greater than 1000 nM and less than 100 nM.
As to `CN(CC1CCOCC1)[C@H]1CC[C@H](NS(=O)(=O)c2ccc(N3CCC4(CCOC4)CC3)nc2)CC1` [Example 183, N-((1r,4r)-4-(Methyl((tetrahydro-2H-pyran-4-yl)methyl)amino)cyclohexyl)-6-(2-oxa-8-azaspiro[4.5]decan-8-yl)pyridine-3-sulfonamide], the inhibition constant (Ki) in experiment [1] and in experiment [2] was 500 to 1000 nM in each case.
Turning to `CN(CC(C)(C)C)[C@H]1CC[C@H](NS(=O)(=O)c2ccc(N3CCC4(CCOC4)CC3)nc2)CC1` [Example 182, N-((1r,4r)-4-(Methyl(neopentyl)a-mino)cyclohexyl)-6-(2-oxa-8-azaspiro[4.5]decan-8-yl)pyridine-3-sulfonamide], the Ki is greater than 1000 nM in experiment [1] and 500 to 1000 nM in experiment [2].
Turning to `N#Cc1cc(CN2CCCC3(CCN(S(=O)(=O)c4ccc(N5CCOC5=O)nc4)CC3)C2)ccc1F` [Example 152, 2-Fluoro-5-((9-((6-(2-oxooxazolidin-3-yl)pyridin-3-yl)sulfonyl)-2,9-diazaspiro[5.5]undecan-2-yl)methyl)benzonitrile], the inhibition constant Ki in experiment [1] and in experiment [2] was greater than 1000 nM each time.
For the compound `O=S(=O)(N[C@H]1CC[C@H](NCc2ccncc2)CC1)c1ccc(N2CCOCC2)nc1` [Example 55, 6-Morpholino-N-((1r,4r)-4-((pyridin-4-ylmethyl)amino)cyclohexyl)pyridine-3-sulfonamide], the Ki in experiment [1] and in experiment [2] was greater than 1000 nM throughout.
For `COC1CCN(c2ccc(S(=O)(=O)N[C@@H]3CCN(Cc4ccccc4)C3)cn2)CC1` [Example 26, (R)-N-(1-Benzylpyrrolidin-3-yl)-6-(4-methoxypiperidin-1-yl)pyridine-3-sulfonamide], the inhibition constant (Ki) is 500 to 1000 nM in experiment [1] and greater than 1000 nM in experiment [2].
As to `CN([C@H]1CCN(Cc2ccccc2)C1)S(=O)(=O)c1ccc(N2CCOCC2)nc1` [Example 4, (S)-N-(1-Benzylpyrrolidin-3-yl)-N-methyl-6-morpholinopyridine-3-sulfonamide], the Ki in experiment [1] is less than 100 nM; in experiment [2], greater than 1000 nM.
Regarding `CN(Cc1ccccc1)C1CCN(S(=O)(=O)c2ccc(N3CCC(F)(F)CC3)nc2)CC1` [Example 86, N-Benzyl-1-((6-(4,4-difluoropiperidin-1-yl)pyridin-3-yl)sulfonyl)-N-methylpiperidin-4-amine], the inhibitory constant (Ki) in experiment [1] and in experiment [2] was less than 100 nM in each case.
Consider `O=C1OCCN1c1ccc(S(=O)(=O)N2CCC3(CCN(Cc4cc(F)ccc4F)CC3)CC2)cn1` [Example 156, 3-(5-((9-(2,5-Difluorobenzyl)-3,9-diazaspiro[5.5]undecan-yl)sulfonyl)pyridin-2-yl)oxazolidin-3-2-one], for which the Ki is greater than 1000 nM in experiment [1] and less than 100 nM in experiment [2].
Consider `C[C@H]1CN(Cc2ccccc2)C[C@@H]1NS(=O)(=O)c1ccc(N2CCOCC2)nc1` [Example 6, N-((3R,4S)-1-Benzyl-4-methylpyrrolidin-3-yl)-6-morpholinopyridine-3-sulfonamide], for which the Ki in experiment [1] is less than 100 nM; in experiment [2], 500 to 1000 nM.
In the same order, the values of `O=C1CCCN1c1ccc(S(=O)(=O)N2CCCC3(CCN(CC4CCOCC4)CC3)C2)cn1` [Example 126, 1-(5-((9-((Tetrahydro-2H-pyran-4-yl)methyl)-2,9-diazaspiro[5.5]undecan-2-yl)sulfonyl)pyridin-2-yl)pyrrolidin-2-one] are less than 100 nM and less than 100 nM.
In the case of `CC(C)CCN1CCC2(CC1)CCN(S(=O)(=O)c1ccc(C(F)(F)F)nc1)CC2` [Example 93, 3-Isopentyl-9-((6-(trifluoromethyl)pyridin-3-yl)sulfonyl)-3,9-diazaspiro[5.5]undecane], the inhibition constant (Ki) in experiment [1] and in experiment [2] was less than 100 nM throughout.
In the case of `CC(C)(C)CCN1CCC2(CC1)CCN(S(=O)(=O)c1ccc(N3CCC4(CCOC4)CC3)nc1)CC2` [Example 68, 8-(5-((9-(3,3-Dimethylbutyl)-3,9-diazaspiro[5.5]undecan-3-yl)sulfonyl)pyridin-2-yl)-2-oxa-8-azaspiro[4.5]decane], the results for the Ki in experiment [1] and in experiment [2] were 100 to 500 nM and less than 100 nM, respectively.
In the same order, the values of `O=S(=O)(N[C@@H]1CCN(Cc2ccccc2)C1)c1ccc(N2C[C@@H]3C[C@H]2CO3)nc1` [Example 23, N-((R)-1-Benzylpyrrolidin-3-yl)-6-((1S,4S)-2-oxa-5-azabicyclo[2.2.1]heptan-5-yl)pyridine-3-sulfonamide] are less than 100 nM and greater than 1000 nM.
